Assay results reported in patent US20080064668A1, “1,3-Diacylated, 26,27-Alkyl/Haloakyl Vitamin D3 Compounds and Methods of Use Thereof” (BioXell S.p.A., priority 2003, published 2008).

Tests used:
[1] = Determination of Maximum Tolerated Dose (MTD)
Experimental: The maximum tolerated dose of the vitamin D3 compounds of the invention were determined in eight week-old female C57BL/6 mice (3 mice/group) dosed orally (0.1 ml/mouse) with various concentrations of Vitamin D3 analogs daily for four days. Analogs were formulated in miglyol for a final concentration of 0.01, 0.03, 0.1 0.3, 1, 3, 10, 30, 100 and 300 μg/kg when given at 0.1 ml/mouse p.o. daily. Blood for serum calcium assay was drawn by tail bleed on day five, the final day of the study.

IFN-γ production = IFN-γ production in the mixed leukocyte response (MLR); format: cell-based; conditions: 120 h; allogeneic PBMC from 2 donors, 5 days, ELISA; read-out: INF-γ IC50
Experimental: Immature dendritic cells (DC) were prepared as described in Romani, N. et al. (Romani, N. et al. (1996) J. Immunol. Meth. 196:137). IFN-γ production by allogeneic T cell activation in the mixed leukocyte response (MLR) was determined as described in Penna, G., et al., J Immunol., 164: 2405-2411 (2000).
Briefly, peripheral blood mononuclear cells (PBMC) were separated from buffy coats by Ficoll gradient and the same number (3×10^5) of allogeneic PBMC from 2 different donors were co-cultured in 96-well flat-bottom plates. The vitamin D3 compounds were added to each of the cultures.

ECV = assay: Proliferation assay using bladder cancer cell lines, ECV; format: cell-based, human; conditions: Homo sapiens; 72 h culture, CyQuant proliferation assay
HT 1376 = assay: Proliferation assay using bladder cancer cell lines, HT1376; format: cell-based, human; conditions: Homo sapiens, HT-1376; 72 h culture, CyQuant proliferation assay
Experimental: (§1) Bladder cancer cell lines (T24, RT112, HT1376 and RT4 are human bladder cancer cell lines; NHEK are normal human keratinocytes) were obtained from the European Collection of Cell Cultures (Salisbury, UK). Cells were plated at 3×10^3 per well, in flat bottomed 96-well plates in 100 μl of DMEM medium containing: 5% Fetal Clone I, 50 μg/l gentamicin, 1 mM sodium pyruvate and 1% non-essential amino acids. After culturing for 24 h at 37° C. in 5% CO2, to allow cells to adhere to the plates, VDR ligands (compounds (2), (4), (5) and other vitamin D3 analogs as shown in Table 4) were added at concentrations ranging from 100 μM to 0.3 μM in 100 μl of above-mentioned complete medium. After a further 72 h of culture, cell proliferation was measured using a fluorescence-based proliferation assay kit. (CyQuant Cell Proliferation Assay Kit, Molecular Probes, Eugene, Oreg., USA). The IC50 was calculated from the regression curve of the titration data.

RT4 = assay: Proliferation assay using bladder cancer cell lines, RT4; format: cell-based, human; conditions: Homo sapiens, RT-4, 72 h, 72 h culture, CyQuant proliferation assay
Experimental: as §1

NHEK = assay: Proliferation assay, NHEK normal human keratinocytes; format: cell-based; conditions: Homo sapiens, NHEK; 72 h culture, CyQuant proliferation assay
Experimental: as §1

[2] = system: rats with CYP-induced cystitis; assay: Cyclophosphamide (CYP) induced chronic IC in rats, cystometry; format: in vivo, Wistar rats
Source text: The rat model of chemical cystitis induced by intraperitoneal injection of CYP has been well accepted. CYP is used in clinical practice in the treatment of a number of malignant tumors. One of its metabolites, acrolein, is excreted in urine in large concentrations causing hemorrhagic cystitis associated with symptoms of urinary frequency, urgency and pelvic pain. The inflammatory process is characterized by changes in gross histology of bladder, increase in number and distribution of inflammatory cell infiltrates (mast cells, macrophage, PMNs), cyclo-oxygenase-2 expression and prostaglandin production, growth factor and cytokine production. […]
This model was used to test the effects of 1,25-dihydroxyvitamin D3 analogue in rats with CYP-induced cystitis. The effects of the treatment on the cystometric parameters in a conscious freely moving rat with CYP-induced cystitis were monitored. The following cystometric parameters were recorded in each animal: bladder capacity, filling pressure (pressure at the beginning of the bladder filling), threshold pressure (bladder pressure immediately prior to micturition), micturition pressure (the maximal bladder pressure during micturition), presence or absence of non-voiding bladder contractions (increases in bladder pressure of at least 10 cm H20 without release of urine), and amplitude of non-voiding bladder contraction. […]

**Q.** Which MTD at 4 days ([1]; female, C57BL/6, mouse, in vivo, po) does the source give for `CC(=O)OC1C/C(=C/C=C2\CCC[C@]3(C)C(C(C)C/C=C\C(O)(C(F)(F)F)C(F)(F)F)=CCC23)C[C@@H](OC(C)=O)C1` (stereo partly drawn) [Compound (2), 1,3-Di-O-acetyl-1,25-dihydroxy-16,23Z-diene-26,27-hexafluoro-19-nor-cholecalciferol] here?
**A.** 0.1 µg/kg

**Q.** What about the “MTD relative to compound (1)” value ([1]; mice, MTD of (2) versus parent (1)) of the same compound?
**A.** more than 300 times

**Q.** And the “MTD compared with the corresponding dihydroxy (parent) compound” value ([1]; versus (1) or (3))?
**A.** significantly higher

**Q.** And the IC50 (IFN-γ production)?
**A.** 0.000722 µM

**Q.** What about the IC50 (ECV) of the same compound?
**A.** 55 µM

**Q.** What about the IC50 (HT 1376) of the same compound?
**A.** 100 µM

**Q.** And the IC50 (RT4)?
**A.** 20 µM

**Q.** What about the IC50 (NHEK) of the same compound?
**A.** 9.8 µM

**Q.** What about the “ability to treat bladder dysfunction” value [2] of the same compound?
**A.** has the ability to treat bladder dysfunction
